Results on 1 compound are retold here after US10716821B2, “Use of plant extracts against herpes simplex virus” (UNIVERSITÉ DU QUÉBEC À CHICOUTIMI, priority 2013, dated 2020).

This experiment deals with HSV-1. Description: HSV-1 plaque reduction, method D: replication period. Format: cell-based, herpes simplex virus type-1. The procedure: Plaque assays were performed with monolayer cultures of Vero cells in 24-well culture plates. For plaque reduction assay, cell monolayer was infected with virus (30 pfu/well) and incubated at 37° C. with 5% CO2 for one hour. The infected cell monolayer was then washed with PBS and overlaid with overlapping solution (maintenance medium containing 1% methylcellulose and various concentrations of indicated compounds). After 72 h of incubation at 37° C., cell monolayer was fixed with 5% paraformaldehyde and stained with 0.8% crystal violet. Plaques were counted and the percentage of inhibition was calculated as [(Pc−Pe)/Pc]100, where Pc and Pe refer to the plaque number in the absence and presence of the compound, respectively. The minimal concentration of compounds required to reduce 50% of plaque numbers (IC50) was also calculated. Cells and viruses (HSV-1) were incubated with acyclovir and various extracts at different stages during the viral infection cycle in order to determine the antiviral action mode (Koch et al., 2008). (A) For virus pretreatment assay, the virus suspension was incubated in a medium containing different concentrations of the extracts for one hour at 37° C. prior to infection of Vero cells. […] The antiviral activity of non-cytotoxic plant extracts was determined against HSV-1 in vitro. […] Then, the cells were washed and quantified using resazurin.

For the compound `Nc1nc2c(ncn2COCCO)c(=O)[nH]1` [Acyclovir], under “Human alphaherpesvirus 1, 72 h, at 100 μg/ml, replication period (extracts added after infection, stay 3 days on cells), Vero cells, read-out: Inhibitory percentage of lysis plaques, D”, the inhibition at 100 µg/mL was 100%. The “Protection of VERO cells against infection (positive control)” value (dose of 0.75 μg/ml) is listed as “protects VERO cells against infection”.
